From patent US20260022246A1, “COLORING AGENT COMPOSITION, FILM, OPTICAL FILTER, AND NEAR INFRARED ABSORBING COMPOUND” (FUJIFILM Corporation, priority 2023, published 2026)

How the values were obtained:
Format in all cases: physicochemical
[1] = Evaluation of absorption spectrum (maximal absorption wavelength in chloroform solution); conditions: for λmax (maximal absorption wavelength): chloroform solution, 3.0×10^−5 mol/L, 1 mm quartz cell; for Near infrared absorbing property: grade of λmax in chloroform solution
Protocol: The specific compound is diluted with chloroform to a concentration of […], and an absorbance of the obtained sample solution is measured with a spectrophotometer (UV-3600 Plus, manufactured by Shimadzu Corporation) using a 1 mm quartz cell. A maximal absorption wavelength (Amax) is measured from an absorption spectrum of the sample solution.
For each of Exemplary Compounds shown in Tables 1 and 2, a sample solution was prepared by diluting the compound with chloroform to a concentration of 3.0×10^−5 mol/L, and near infrared absorbability was evaluated.
For each sample solution, an absorbance was measured in a 1 mm quartz cell using a spectrophotometer (UV-3600 Plus, manufactured by Shimadzu Corporation).
A maximal absorption wavelength (Amax) was measured from the absorption spectrum of each sample solution. The results are shown in Tables 1 and 2, and the wavelength of Amax was evaluated according to the following standard.
• A: Amax was 1,150 nm or more. • B: Amax was less than 1,150 nm.

[2] = Evaluation of solubility in methyl ethyl ketone (MEK); conditions: stirred at room temperature for 30 minutes
Protocol: For each of Exemplary Compounds shown in Tables 1 and 2, a predetermined amount of the compound was added to a solvent of methyl ethyl ketone (MEK), and solubility was evaluated according to the following standard by stirring the mixture at room temperature for 30 minutes.
• A: 1 g or more of the compound was stably dissolved in 300 g of MEK. • B: 1 g was not dissolved in 300 g of MEK. • X: decomposition was observed by measuring the absorption spectrum after the dissolution.

[3] = Evaluation of heat stability of polystyrene resin film (hot plate 180° C., 5 minutes); conditions: polystyrene resin film on glass, hot plate 180° C. for 5 minutes, absorbance reduction rate at λmax
Protocol: 30 mg of each of Exemplary Compounds and the comparative compounds described in the tables was dissolved in 8.9 g of methyl ethyl ketone and 1.1 g of a polystyrene resin (manufactured by Sigma-Aldrich Co. LLC) to prepare a resin composition.
The obtained resin composition was spin-coated on a glass substrate to form a coating film, and the obtained coating film was dried at 60° C. for 2 minutes to produce a resin film. […]
• A: absorbance reduction rate of Amax was less than 5%. • B: absorbance reduction rate of Amax was 5% or more and less than 10%. • C: absorbance reduction rate of Amax was 10% or more and less than 50%. • D: absorbance reduction rate of Amax was 50% or more. • X: solubility was insufficient, so that the film cannot be produced, which was not evaluable.

Row | Structure (SMILES) | λmax (maximal absorption wavelength) [1] | Near infrared absorbing property [1] | Solubility in solvent [2] | Heat stability of resin composition [3]
1 | N#Cc1ccc(N(c2ccc(C#N)cc2)c2ccc([N+](=C3C=CC(=[N+](c4ccc(N(c5ccc(C#N)cc5)c5ccc(C#N)cc5)cc4)c4ccc(N(c5ccc(C#N)cc5)c5ccc(C#N)cc5)cc4)C=C3)c3ccc(N(c4ccc(C#N)cc4)c4ccc(C#N)cc4)cc3)cc2)cc1.[O-][Cl+3]([O-])([O-])[O-].[O-][Cl+3]([O-])([O-])[O-] [A-9] | 1170 nm | A (Amax was 1,150 nm or more) | A (1 g or more of the compound was stably dissolved in 300 g of MEK) | A (absorbance reduction rate of Amax was less than 5%)
2 | Cc1ccc(N(c2ccc(C)cc2)c2ccc([N+](=C3C=CC(=[N+](c4ccc(N(c5ccc(C)cc5)c5ccc(C)cc5)cc4)c4ccc(N(c5ccc(C)cc5)c5ccc(C)cc5)cc4)C=C3)c3ccc(N(c4ccc(C)cc4)c4ccc(C)cc4)cc3)cc2)cc1 [A-28] | 1209 nm | A (Amax was 1,150 nm or more) | A (1 g or more of the compound was stably dissolved in 300 g of MEK) | A (absorbance reduction rate of Amax was less than 5%)
3 | FC(F)(F)c1ccc(N(c2ccc([N+](=C3C=CC(=[N+](c4ccc(N(c5ccc(C(F)(F)F)cc5)c5ccc(C(F)(F)F)cc5)cc4)c4ccc(N(c5ccc(C(F)(F)F)cc5)c5ccc(C(F)(F)F)cc5)cc4)C=C3)c3ccc(N(c4ccc(C(F)(F)F)cc4)c4ccc(C(F)(F)F)cc4)cc3)cc2)c2ccc(C(F)(F)F)cc2)cc1.[O-][Cl+3]([O-])([O-])[O-].[O-][Cl+3]([O-])([O-])[O-] [A-7] | 1162 nm | A (Amax was 1,150 nm or more) | A (1 g or more of the compound was stably dissolved in 300 g of MEK) | A (absorbance reduction rate of Amax was less than 5%)
4 | Cc1ccc(N(c2ccc(C)cc2)c2ccc([N+](=C3C=CC(=[N+](c4ccc(N(c5ccc(C)cc5)c5ccc(C)cc5)cc4)c4ccc(N(c5ccc(C)cc5)c5ccc(C)cc5)cc4)C=C3)c3ccc(N(c4ccc(C)cc4)c4ccc(C)cc4)cc3)cc2)cc1.F[P-](F)(F)(F)(F)F.F[P-](F)(F)(F)(F)F [A-30] | 1209 nm | A (Amax was 1,150 nm or more) | A (1 g or more of the compound was stably dissolved in 300 g of MEK) | A (absorbance reduction rate of Amax was less than 5%)
5 | CCCCc1ccc(N(c2ccc(CCCC)cc2)c2ccc([N+](=C3C=CC(=[N+](c4ccc(N(c5ccc(CCCC)cc5)c5ccc(CCCC)cc5)cc4)c4ccc(N(c5ccc(CCCC)cc5)c5ccc(CCCC)cc5)cc4)C=C3)c3ccc(N(c4ccc(CCCC)cc4)c4ccc(CCCC)cc4)cc3)cc2)cc1.[O-][Cl+3]([O-])([O-])[O-].[O-][Cl+3]([O-])([O-])[O-] [A-8] | 1210 nm | A (Amax was 1,150 nm or more) | A (1 g or more of the compound was stably dissolved in 300 g of MEK) | A (absorbance reduction rate of Amax was less than 5%)
6 | COc1ccc(N(c2ccc(OC)cc2)c2ccc([N+](=C3C=CC(=[N+](c4ccc(N(c5ccc(OC)cc5)c5ccc(OC)cc5)cc4)c4ccc(N(c5ccc(OC)cc5)c5ccc(OC)cc5)cc4)C=C3)c3ccc(N(c4ccc(OC)cc4)c4ccc(OC)cc4)cc3)cc2)cc1.[O-][Cl+3]([O-])([O-])[O-].[O-][Cl+3]([O-])([O-])[O-] [A-6] | 1248 nm | A (Amax was 1,150 nm or more) | A (1 g or more of the compound was stably dissolved in 300 g of MEK) | A (absorbance reduction rate of Amax was less than 5%)
7 | COc1cc(C)c(N(c2ccc([N+](=C3C=CC(=[N+](c4ccc(N(c5c(C)cc(OC)cc5C)c5c(C)cc(OC)cc5C)cc4)c4ccc(N(c5c(C)cc(OC)cc5C)c5c(C)cc(OC)cc5C)cc4)C=C3)c3ccc(N(c4c(C)cc(OC)cc4C)c4c(C)cc(OC)cc4C)cc3)cc2)c2c(C)cc(OC)cc2C)c(C)c1.[O-][Cl+3]([O-])([O-])[O-].[O-][Cl+3]([O-])([O-])[O-] [A-22] | 1308 nm | A (Amax was 1,150 nm or more) | A (1 g or more of the compound was stably dissolved in 300 g of MEK) | A (absorbance reduction rate of Amax was less than 5%)
8 | Cc1ccc(N(c2ccc(C)cc2)c2ccc([N+](=C3C=CC(=[N+](c4ccc(N(c5ccc(C)cc5)c5ccc(C)cc5)cc4)c4ccc(N(c5ccc(C)cc5)c5ccc(C)cc5)cc4)C=C3)c3ccc(N(c4ccc(C)cc4)c4ccc(C)cc4)cc3)cc2)cc1.c1ccc([B-](c2ccccc2)(c2ccccc2)c2ccccc2)cc1.c1ccc([B-](c2ccccc2)(c2ccccc2)c2ccccc2)cc1 [A-36] | 1215 nm | A (Amax was 1,150 nm or more) | A (1 g or more of the compound was stably dissolved in 300 g of MEK) | A (absorbance reduction rate of Amax was less than 5%)
9 | Cc1ccc(N(c2ccc(C)cc2)c2ccc([N+](=C3C=CC(=[N+](c4ccc(N(c5ccc(C)cc5)c5ccc(C)cc5)cc4)c4ccc(N(c5ccc(C)cc5)c5ccc(C)cc5)cc4)C=C3)c3ccc(N(c4ccc(C)cc4)c4ccc(C)cc4)cc3)cc2)cc1 [A-35] |  | A (Amax was 1,150 nm or more) | A (1 g or more of the compound was stably dissolved in 300 g of MEK) | A (absorbance reduction rate of Amax was less than 5%)
10 | Cc1cc(C)c(N(c2ccc([N+](=C3C=CC(=[N+](c4ccc(N(c5c(C)cc(C)cc5C)c5c(C)cc(C)cc5C)cc4)c4ccc(N(c5c(C)cc(C)cc5C)c5c(C)cc(C)cc5C)cc4)C=C3)c3ccc(N(c4c(C)cc(C)cc4C)c4c(C)cc(C)cc4C)cc3)cc2)c2c(C)cc(C)cc2C)c(C)c1 [A-3] |  | A (Amax was 1,150 nm or more) | A (1 g or more of the compound was stably dissolved in 300 g of MEK) | A (absorbance reduction rate of Amax was less than 5%)
11 | Cc1ccc(N(c2ccc(C)cc2)c2ccc([N+](=C3C=CC(=[N+](c4ccc(N(c5ccc(C)cc5)c5ccc(C)cc5)cc4)c4ccc(N(c5ccc(C)cc5)c5ccc(C)cc5)cc4)C=C3)c3ccc(N(c4ccc(C)cc4)c4ccc(C)cc4)cc3)cc2)cc1.F[B-](F)(F)F.F[B-](F)(F)F [A-29] | 1209 nm | A (Amax was 1,150 nm or more) | A (1 g or more of the compound was stably dissolved in 300 g of MEK) | A (absorbance reduction rate of Amax was less than 5%)
12 | N#Cc1ccc(N(c2ccc([N+](=C3C=CC(=[N+](c4ccc(N(c5ccc(C#N)c(F)c5)c5ccc(C#N)c(F)c5)cc4)c4ccc(N(c5ccc(C#N)c(F)c5)c5ccc(C#N)c(F)c5)cc4)C=C3)c3ccc(N(c4ccc(C#N)c(F)c4)c4ccc(C#N)c(F)c4)cc3)cc2)c2ccc(C#N)c(F)c2)cc1F [A-19] | 1165 nm | A (Amax was 1,150 nm or more) | A (1 g or more of the compound was stably dissolved in 300 g of MEK) | A (absorbance reduction rate of Amax was less than 5%)
